Test results published in ChEMBL document CHEMBL6087437 (J Med Chem, 2025).
Calls of active or inactive are those of the source. The rule behind the calls is not given here.

Legend:
Ebolavirus [1] = experiment: Antiviral activity against pseudotyped Ebola virus expressing glycoprotein infected in human A549 cells assessed as inhibition of viral entry incubated for 48 hrs by Neolite reporter gene assay; type: functional, organism-based; conditions: Orthoebolavirus, A549, 48 h
Marburgvirus = experiment: Antiviral activity against pseudotyped Marburg virus expressing glycoprotein infected in human A549 cells assessed as inhibition of viral entry incubated for 48 hrs by Neolite reporter gene assay; type: functional, organism-based; conditions: Orthomarburgvirus, A549, 48 h
[2] = Selectivity index, ratio of CC50 for human A549 cells to EC50 for pseudotyped Ebola virus expressing glycoprotein infected in human A549 cells; type: toxicity, cell-based; conditions: read-out: Ratio CC50/EC50
Zaire ebolavirus = experiment: Antiviral activity against pseudotyped Zaire ebolavirus expressing glycoprotein infected in human A549 cells assessed as inhibition of viral entry incubated for 48 hrs by Neolite reporter gene assay; type: functional, organism-based; conditions: A549, 48 h
Sudan ebolavirus = experiment: Antiviral activity against pseudotyped Sudan ebolavirus expressing glycoprotein infected in human A549 cells assessed as inhibition of viral entry incubated for 48 hrs by Neolite reporter gene assay; type: functional, organism-based; conditions: A549, 48 h
Bundibugyo virus = experiment: Antiviral activity against pseudotyped Bundibugyo ebolavirus expressing glycoprotein infected in human A549 cells assessed as inhibition of viral entry incubated for 48 hrs by Neolite reporter gene assay; type: functional, organism-based; conditions: A549, 48 h
Reston ebolavirus = experiment: Antiviral activity against pseudotyped Reston ebolavirus expressing glycoprotein infected in human A549 cells assessed as inhibition of viral entry incubated for 48 hrs by Neolite reporter gene assay; type: functional, organism-based; conditions: A549, 48 h
Tai Forest ebolavirus = experiment: Antiviral activity against pseudotyped Tai Forest ebolavirus expressing glycoprotein infected in human A549 cells assessed as inhibition of viral entry incubated for 48 hrs by Neolite reporter gene assay; type: functional, organism-based; conditions: A549, 48 h
Ebolavirus [3] = experiment: Antiviral activity against wildtype Ebola virus infected in human HeLa cells incubated for 40 hrs by Hoechst 33342 staining based Cytation-1 automated microscopic analysis; type: functional, organism-based; conditions: Orthoebolavirus
HeLa = experiment: Cytotoxicity against human HeLa cells by Celltiter-Glo luminescent cell viability assay; type: toxicity, cell-based
[4] = Selectivity index, ratio of CC50 for human HeLa cells to EC50 for antiviral activity against wildtype Ebolavirus infected in human HeLa cells; type: toxicity, cell-based; conditions: read-out: Ratio CC50/EC50
[5] = Metabolic stability in human liver microsomes assessed as parent compound remaining measured after 60 mins in presence of NADPH by LC-MS/MS analysis; type: ADME, Microsome; conditions: read-out: Stability
[6] = Metabolic stability in BALB/c mouse liver microsomes assessed as parent compound remaining measured after 60 mins in presence of NADPH by LC-MS/MS analysis; type: ADME, Microsome; conditions: read-out: Stability
[7] = Stability in human plasma assessed as parent compound remaining at 2 uM measured after 60 mins by LC-MS/MS analysis; type: ADME, cell-free; conditions: read-out: Stability
[8] = Stability in mouse plasma assessed as parent compound remaining at 2 uM measured after 60 mins by LC-MS/MS analysis; type: ADME, cell-free; conditions: read-out: Stability
CYP1A2 = target: T1, CYP1A2 (Homo sapiens, UniProt P05177); experiment: Inhibition of CYP1A2 in human liver microsomes using phenacetin as substrate at 10 uM preincubated for 5 mins followed by substrate addition and measured after 20 mins by LC-MS analysis relative to control; type: ADME, Microsome; conditions: probe phenacetin, time 25 min
T1 sequence (P05177 whole entry): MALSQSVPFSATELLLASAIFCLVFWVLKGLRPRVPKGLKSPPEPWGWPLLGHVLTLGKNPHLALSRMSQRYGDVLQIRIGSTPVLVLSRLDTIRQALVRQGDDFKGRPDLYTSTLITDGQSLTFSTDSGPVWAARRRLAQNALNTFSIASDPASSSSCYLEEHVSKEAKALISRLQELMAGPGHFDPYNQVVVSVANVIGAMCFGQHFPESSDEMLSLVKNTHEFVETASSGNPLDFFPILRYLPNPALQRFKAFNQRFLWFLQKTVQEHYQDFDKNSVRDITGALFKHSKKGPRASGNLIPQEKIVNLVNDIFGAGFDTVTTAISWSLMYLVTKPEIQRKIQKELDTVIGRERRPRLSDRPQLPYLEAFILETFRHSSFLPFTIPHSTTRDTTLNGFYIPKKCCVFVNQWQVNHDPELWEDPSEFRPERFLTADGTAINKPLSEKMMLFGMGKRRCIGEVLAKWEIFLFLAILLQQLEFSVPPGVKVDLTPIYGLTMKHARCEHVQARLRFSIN

CYP2C9 = CYP2C9 (Homo sapiens, UniProt P11712); experiment: Inhibition of CYP2C9 in human liver microsomes using tolbutamide as substrate at 10 uM preincubated for 5 mins followed by substrate addition and measured after 20 mins by LC-MS analysis relative to control; type: ADME, Microsome; conditions: probe tolbutamide, time 25 min
Chain of CYP2C9 (P11712 whole entry): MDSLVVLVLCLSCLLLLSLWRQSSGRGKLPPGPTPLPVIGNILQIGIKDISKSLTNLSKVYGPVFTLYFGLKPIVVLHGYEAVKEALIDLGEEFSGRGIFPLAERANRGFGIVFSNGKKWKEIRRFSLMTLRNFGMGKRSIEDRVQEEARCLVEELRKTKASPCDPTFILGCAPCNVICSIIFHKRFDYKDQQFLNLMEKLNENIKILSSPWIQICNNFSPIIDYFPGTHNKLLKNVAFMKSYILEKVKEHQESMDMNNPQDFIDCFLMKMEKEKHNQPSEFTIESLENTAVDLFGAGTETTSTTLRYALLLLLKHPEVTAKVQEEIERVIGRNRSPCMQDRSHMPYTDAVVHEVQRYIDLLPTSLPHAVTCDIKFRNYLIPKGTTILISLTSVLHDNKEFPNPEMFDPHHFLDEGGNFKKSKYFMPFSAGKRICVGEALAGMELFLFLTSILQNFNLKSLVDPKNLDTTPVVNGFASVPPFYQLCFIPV

CYP2D6 = CYP2D6 (Homo sapiens, UniProt P10635); experiment: Inhibition of CYP2D6 in human liver microsomes using dextromethorphan as substrate at 10 uM preincubated for 5 mins followed by substrate addition and measured after 20 mins by LC-MS analysis relative to control; type: ADME, Microsome; conditions: probe dextromethorphan, time 25 min
Chain of CYP2D6 (P10635 whole entry): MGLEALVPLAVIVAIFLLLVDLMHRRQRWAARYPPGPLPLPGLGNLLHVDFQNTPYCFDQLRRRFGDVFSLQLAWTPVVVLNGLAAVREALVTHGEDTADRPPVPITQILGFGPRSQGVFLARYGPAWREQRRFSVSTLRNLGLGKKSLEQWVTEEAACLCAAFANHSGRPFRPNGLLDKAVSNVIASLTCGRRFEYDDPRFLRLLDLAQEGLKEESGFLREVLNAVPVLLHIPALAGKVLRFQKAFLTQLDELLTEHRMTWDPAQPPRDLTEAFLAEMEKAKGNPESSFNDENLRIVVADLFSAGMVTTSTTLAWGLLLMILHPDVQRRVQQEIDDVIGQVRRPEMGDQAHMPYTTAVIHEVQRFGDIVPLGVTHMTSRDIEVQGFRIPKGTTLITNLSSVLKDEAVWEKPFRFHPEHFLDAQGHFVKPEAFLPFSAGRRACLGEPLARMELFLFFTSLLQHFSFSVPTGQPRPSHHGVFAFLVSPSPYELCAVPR

[9] = target: Voltage-gated inwardly rectifying potassium channel KCNH2 (Homo sapiens, UniProt Q12809); experiment: Inhibition of human ERG; type: toxicity
Chain of Voltage-gated inwardly rectifying potassium channel KCNH2 (Q12809 whole entry): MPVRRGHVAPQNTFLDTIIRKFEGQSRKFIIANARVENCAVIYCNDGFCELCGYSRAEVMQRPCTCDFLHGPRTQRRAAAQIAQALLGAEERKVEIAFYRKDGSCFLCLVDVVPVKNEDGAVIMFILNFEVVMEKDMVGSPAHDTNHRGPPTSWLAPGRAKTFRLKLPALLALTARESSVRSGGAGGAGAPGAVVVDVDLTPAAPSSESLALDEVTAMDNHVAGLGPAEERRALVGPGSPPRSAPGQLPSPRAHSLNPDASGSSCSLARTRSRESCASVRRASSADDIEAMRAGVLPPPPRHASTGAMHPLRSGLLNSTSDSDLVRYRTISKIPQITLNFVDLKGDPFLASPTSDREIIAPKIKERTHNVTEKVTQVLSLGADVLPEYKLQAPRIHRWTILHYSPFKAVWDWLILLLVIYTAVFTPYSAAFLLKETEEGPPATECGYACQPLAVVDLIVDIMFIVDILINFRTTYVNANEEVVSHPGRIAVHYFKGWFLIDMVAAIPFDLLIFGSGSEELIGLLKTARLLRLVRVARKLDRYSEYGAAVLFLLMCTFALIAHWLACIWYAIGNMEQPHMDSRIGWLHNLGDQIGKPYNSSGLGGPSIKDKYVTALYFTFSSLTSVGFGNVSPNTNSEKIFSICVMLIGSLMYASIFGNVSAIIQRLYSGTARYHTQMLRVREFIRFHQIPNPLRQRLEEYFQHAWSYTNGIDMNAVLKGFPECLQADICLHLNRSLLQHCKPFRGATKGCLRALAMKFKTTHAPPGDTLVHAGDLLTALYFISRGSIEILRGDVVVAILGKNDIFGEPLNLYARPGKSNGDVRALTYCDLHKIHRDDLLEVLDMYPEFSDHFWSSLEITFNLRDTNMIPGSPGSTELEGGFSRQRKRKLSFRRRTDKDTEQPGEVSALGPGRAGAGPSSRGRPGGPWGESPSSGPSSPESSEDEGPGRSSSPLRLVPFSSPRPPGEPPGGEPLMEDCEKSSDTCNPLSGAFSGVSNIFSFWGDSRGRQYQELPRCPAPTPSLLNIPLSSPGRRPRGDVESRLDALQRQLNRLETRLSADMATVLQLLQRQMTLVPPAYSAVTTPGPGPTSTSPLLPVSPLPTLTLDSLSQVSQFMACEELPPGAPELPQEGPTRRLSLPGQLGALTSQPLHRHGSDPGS

[10] = Half-life in female C57BL/6J mouse at 25 mg/kg, ip; type: ADME, organism-based; conditions: in vivo
[11] = Tmax in female C57BL/6J mouse at 25 mg/kg, ip; type: ADME, organism-based; conditions: in vivo
[12] = Cmax in female C57BL/6J mouse at 25 mg/kg, ip; type: ADME, organism-based; conditions: in vivo
[13] = AUC in female C57BL/6J mouse at 25 mg/kg, ip; type: ADME, organism-based; conditions: in vivo
[14] = Clearance in female C57BL/6J mouse at 25 mg/kg, ip; type: ADME, organism-based; conditions: in vivo
[15] = Half-life in female C57BL/6J mouse at 50 mg/kg, ip; type: ADME, organism-based; conditions: in vivo
[16] = Tmax in female C57BL/6J mouse at 50 mg/kg, ip; type: ADME, organism-based; conditions: in vivo
[17] = Cmax in female C57BL/6J mouse at 50 mg/kg, ip; type: ADME, organism-based; conditions: in vivo
[18] = AUC in female C57BL/6J mouse at 50 mg/kg, ip; type: ADME, organism-based; conditions: in vivo
[19] = Clearance in female C57BL/6J mouse at 50 mg/kg, ip; type: ADME, organism-based; conditions: in vivo
Influenza A virus = experiment: Antiviral activity against pseudotyped Influenza A virus A/Goose/Qinghai/59/05(H5N1) infected in human A549 cells assessed as inhibition of viral entry incubated for 48 hrs by Neolite reporter gene assay; type: functional, organism-based
[20] = system: Vesicular stomatitis virus; experiment: Antiviral activity against pseudotyped vesicular stomatitis virus expressing glycoprotein infected in human A549 cells assessed as inhibition of viral entry incubated for 48 hrs by Neolite reporter gene assay; type: functional, organism-based
A549 = experiment: Induction of phospholipidosis in human A549 cells at 10 uM incubated for 48 hrs by Hoechst 33342 staining based fluorescence imaging analysis; type: functional, cell-based
CYP3A4 = CYP3A4 (Homo sapiens, UniProt P08684); experiment: Inhibition of CYP3A4 in human liver microsomes using midazolam as substrate at 10 uM preincubated for 5 mins followed by substrate addition and measured after 20 mins by LC-MS analysis relative to control; type: ADME, Microsome; conditions: probe midazolam, time 25 min
Chain of CYP3A4 (P08684 whole entry): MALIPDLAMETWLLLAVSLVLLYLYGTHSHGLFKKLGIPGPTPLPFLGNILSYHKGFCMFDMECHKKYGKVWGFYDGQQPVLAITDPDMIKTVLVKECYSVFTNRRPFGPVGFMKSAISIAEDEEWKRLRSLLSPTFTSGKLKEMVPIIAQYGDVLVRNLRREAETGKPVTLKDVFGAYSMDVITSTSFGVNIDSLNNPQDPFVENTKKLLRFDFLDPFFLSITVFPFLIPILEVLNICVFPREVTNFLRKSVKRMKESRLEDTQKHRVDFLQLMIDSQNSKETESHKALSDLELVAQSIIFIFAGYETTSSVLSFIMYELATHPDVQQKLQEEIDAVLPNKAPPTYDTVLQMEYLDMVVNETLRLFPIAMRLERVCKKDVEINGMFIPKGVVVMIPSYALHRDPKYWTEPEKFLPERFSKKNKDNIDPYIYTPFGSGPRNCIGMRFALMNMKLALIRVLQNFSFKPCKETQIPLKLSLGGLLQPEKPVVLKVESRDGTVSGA

[21] = Toxicity in female C57BL/6J mouse assessed as adverse effect at 25 to 50 mg/kg, ip; type: organism-based; conditions: in vivo, dose 25-50 mg/kg
Ebolavirus [22] = experiment: Binding affinity to Ebolavirus glycoprotein by SPR analysis

Row | SMILES | EC50 (Ebolavirus [1]) [nM] | EC50 (Marburgvirus) [nM] | selectivity ratio [2] | EC50 (Zaire ebolavirus) [nM] | EC50 (Sudan ebolavirus) [nM] | EC50 (Bundibugyo virus) [nM] | EC50 (Reston ebolavirus) [nM] | EC50 (Tai Forest ebolavirus) [nM] | EC50 (Ebolavirus [3]) [nM] | CC50 (HeLa) [nM] | selectivity ratio [4] | remaining at 1 h [5] [%] | remaining at 1 h [6] [%] | remaining at 1 h, 2 µM [7] [%] | remaining at 1 h, 2 µM [8] [%] | inhibition at 20 min, 10 µM (CYP1A2) [%] | inhibition at 20 min, 10 µM (CYP2C9) [%] | inhibition at 20 min, 10 µM (CYP2D6) [%] | IC50 [9] [nM] | half-life [10] [h] | also measured
1 | O=C(Nc1ccc(N2CCC3(CCC3)CC2)c(C(F)(F)F)c1)c1ccc(C(=O)N2C[C@@H]3C[C@H]2CO3)nc1 | 160 | 2240 | 258 | 160 | 890 | 210 | 210 | 110 | 730 | 47700 | 65 | 83.6 | 84 | ~100 | 97 | 13.5 | 56.6 | 24.9 | 9400 | 1.4 | Tmax [11]: 1.7 h; Cmax [12]: 5370 ng/mL; AUC [13]: 20700 ng·h/mL; CL/F [14]: 20.2 mL/min/kg; half-life [15]: 1.9 h; Tmax [16]: 0.7 h; Cmax [17]: 14600 ng/mL; AUC [18]: 57800 ng·h/mL; CL/F [19]: 14.4 mL/min/kg; inhibition (Influenza A virus): Weak_effect; inhibition [20]: Weak_effect; Activity (A549): inactive
2 | O=C(Nc1ccc(N2CCC3(CCC3)CC2)c(C(F)(F)F)c1)c1ccc(CN2C[C@@H]3C[C@H]2CO3)nc1 | 120 | 680 |  | 120 | 2140 | 840 | 300 | 290 | 440 | 19100 |  | 60 | 77 | ~100 | 90 | 5.4 | 66.4 | 35.2 | 1500 | 3.4 | inhibition at 20 min, 10 µM (CYP3A4): 4.9%; Activity [21]: Non-toxic; Tmax [11]: 0.5 h; Cmax [12]: 2170 ng/mL; AUC [13]: 14300 ng·h/mL; CL/F [14]: 29.2 mL/min/kg; half-life [15]: 4.8 h; Tmax [16]: 1 h; Cmax [17]: 6790 ng/mL; AUC [18]: 34400 ng·h/mL; CL/F [19]: 24.3 mL/min/kg; inhibition (Influenza A virus): Weak_effect; inhibition [20]: Weak_effect
3 | CC1CCN(c2ccc(NC(=O)c3ccc(CN4CCOCC4)cc3)cc2C(F)(F)F)CC1 | 220 | 5280 | 129 | 220 | 1280 | 3670 | 740 | 170 | 540 | 42700 | 77 |  |  |  |  |  |  |  |  |  | Activity (Ebolavirus [22]): Active
